Source: US6156316A, “Oncogene fusion protein peptide vaccines” (Sloan-Kettering Institute for Cancer Research, priority 1995, dated 2000)
pIC50: −log10 of the molar value. No end group written: not given here.

System: FeLV subunit vaccine
Assay: not given
Settings: cats; cited from earlier work

| Compound | augmenting the immunogenicity of an FeLV subunit vaccine |
| --- | --- |
| QS-21 | highly effective |

Molecular target: HLA B7 (Homo sapiens, UniProt P01889)
Assay: biochemical
Settings: not given

Sequence of HLA B7 (P01889 25-362): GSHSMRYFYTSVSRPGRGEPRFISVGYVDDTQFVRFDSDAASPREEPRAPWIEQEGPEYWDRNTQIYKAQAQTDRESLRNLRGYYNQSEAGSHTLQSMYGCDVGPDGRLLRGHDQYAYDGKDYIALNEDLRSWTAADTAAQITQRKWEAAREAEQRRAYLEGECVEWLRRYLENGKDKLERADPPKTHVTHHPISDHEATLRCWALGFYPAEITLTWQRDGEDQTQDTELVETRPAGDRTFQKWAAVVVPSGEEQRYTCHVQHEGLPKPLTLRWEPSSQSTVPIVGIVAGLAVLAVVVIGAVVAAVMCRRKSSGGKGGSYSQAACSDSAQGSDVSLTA
Sequence of HLA B7 (P61769 21-119, further chain): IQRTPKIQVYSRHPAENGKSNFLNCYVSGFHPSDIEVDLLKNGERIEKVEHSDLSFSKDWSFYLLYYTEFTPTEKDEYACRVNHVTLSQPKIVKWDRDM

| Compound | pIC50 |
| --- | --- |
| IPLTINKEEAL [IPLTINKEEAL] | < 4.52 |

System: HIV-1 recombinant vaccine
Assay: not given
Settings: Rhesus monkeys; cited from earlier work

| Compound | augmenting the immunogenicity of an HIV-1 recombinant vaccine |
| --- | --- |
| QS-21 | highly effective |

Molecular target: T1, HLA A3.2 (Homo sapiens, UniProt P04439)
T1 construct: endogenous in cells
Assay: biochemical
Format: binding
Settings: not given
Excerpt: (§1) Purification of HLA class I molecules.

T1 sequence (P61769 21-119): as the sequence (P61769 21-119, further chain) above
T1 sequence (P04439 25-365): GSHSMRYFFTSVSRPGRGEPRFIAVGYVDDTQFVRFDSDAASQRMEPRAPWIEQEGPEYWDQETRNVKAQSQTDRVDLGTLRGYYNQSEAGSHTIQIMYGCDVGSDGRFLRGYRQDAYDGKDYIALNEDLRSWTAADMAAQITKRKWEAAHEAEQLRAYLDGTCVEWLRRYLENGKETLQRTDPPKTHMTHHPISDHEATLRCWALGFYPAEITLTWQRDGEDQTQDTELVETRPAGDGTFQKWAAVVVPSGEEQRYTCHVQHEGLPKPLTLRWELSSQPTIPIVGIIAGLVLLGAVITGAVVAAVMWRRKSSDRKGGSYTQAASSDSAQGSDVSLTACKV

| Compound | pIC50 |
| --- | --- |
| KQSSKALQR | 7.37 |
| QSSKALQR | < 4.52 |
| LTINKEEALQR | < 4.52 |

Same assay, conditions: AFFINITY (nM) A3.2, Table 1, CML peptides; 50% inhibition of standard peptide binding

| Compound | IC50 [nM] |
| --- | --- |
| TGFKQSSK | > 30000 |
| GFKQSSKALQR | 810 |
| HSATGFKQSSK | 400 |
| FKQSSKALQR | 545 |
| ATGFKQSSK | 300 |
| TINKEEALQR | > 30000 |
| SATGFKQSSK | 5450 |

Same assay, conditions: concentration for 50% inhibition, HLA A3.2, text b187

| Compound | pIC50 |
| --- | --- |
| HSATGFKQSSK | 6.40 |
| ATGFKQSSK | 6.30 to 7.00 |

Molecular target: T2, HLA A2.1 (Homo sapiens, UniProt P04439, D140Y/D185E/D98H/E176V/E277Q/G131W/G231S/I119V/I121R/I166T/I218V/L300P/L318F/N151K/N90K/P208A/P217A/Q86G/Q94H/R138H/R169H/T345S)
T2 construct: endogenous in cells
Assay: biochemical
Format: binding
Settings: not given
Excerpt: as §1

| Compound | pIC50 |
| --- | --- |
| VASGAGEAAI | < 4.30 |
| TINKEEAL [TINKEEAL] | < 4.52 |
| PLTINKEEA | < 4.52 |
| DLSSCITQGKA | < 4.30 |
| CITQGKAI | < 4.30 |
| ATGFKQSSKAL [ATGFKQSSKAL] | < 4.52 |
| HVASGAGEAAI | < 4.30 |
| PLTINKEEAL [PLTINKEEAL] | < 4.52 |
| CC[C@H](C)[C@H](NC(=O)[C@@H](NC(=O)[C@@H](N)CC(C)C)[C@@H](C)O)C(=O)N[C@@H](CC(N)=O)C(=O)N[C@@H](CCCCN)C(=O)N[C@@H](CCC(=O)O)C(=O)N[C@@H](CCC(=O)O)C(=O)N[C@@H](C)C(=O)N[C@@H](CC(C)C)C(=O)O [LTINKEEAL] | < 4.52 |
